Assays:
Alpha2A = molecular target: T1, Alpha2A (Homo sapiens, UniProt P08913); test: Competitive radioligand binding, Alpha2A; conditions: CHO membranes, 3H-rauwolscine 1 nM; for IC50: read-out: pIC50 Alpha2A (converted)
T1 construct: expressed in transfected cells; host or cells: CHO (membrane fraction)
T1 sequence (P08913 1-465): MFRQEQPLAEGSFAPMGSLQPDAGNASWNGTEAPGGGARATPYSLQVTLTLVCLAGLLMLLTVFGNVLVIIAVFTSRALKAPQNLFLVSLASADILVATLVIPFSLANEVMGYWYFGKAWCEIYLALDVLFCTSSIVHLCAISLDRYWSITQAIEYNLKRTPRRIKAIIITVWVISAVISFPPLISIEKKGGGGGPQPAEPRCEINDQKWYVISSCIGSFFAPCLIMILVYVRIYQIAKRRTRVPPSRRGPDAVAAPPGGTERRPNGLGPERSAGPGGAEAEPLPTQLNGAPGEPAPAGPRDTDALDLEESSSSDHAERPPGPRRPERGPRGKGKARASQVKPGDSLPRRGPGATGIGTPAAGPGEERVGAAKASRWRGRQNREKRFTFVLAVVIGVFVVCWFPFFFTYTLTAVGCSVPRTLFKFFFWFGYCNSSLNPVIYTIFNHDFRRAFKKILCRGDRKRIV
Method: (§1) Competitive radioligand binding assays were used to determine the affinity of the test compounds for a particular receptor. Various concentrations of the non-labelled test compound were added to the incubation mixture with the membrane fraction, containing the receptor of interest, and a fixed low concentration (nM) of the radioligand. During the incubation the radioligand bound to the receptor, but this was inhibited by the non-labelled test compound in proportion to its binding affinity and concentration.
(§2) Cell lines were established that stably express the human variant of the receptor under investigation after transfection with the appropriate cDNA (Table 1). Transfected cells were grown under standard culture conditions, and membrane fractions were obtained upon centrifugation and homogenisation of the cells. Optimal membrane dilutions for binding studies were determined and aliquots were stored at −70° C. until use. In a 96-well plate format, the appropriate radioligand was added to the membrane preparation containing the receptor under investigation. Compound solutions were prepared in DMSO, and diluted 100-fold into the multiwell plate to a final test concentration of 10^−9 to 10^−5 M. After incubation with the test compound, the unbound radioligand was removed by filtration on G/F filters with a Filtermate 96. Microscint™ was added to the washed filter plates and the radioactivity bound to the receptor was measured by liquid scintillation counting in a TopCount (Packard). To measure the Non-Specific Binding (NSB), a high concentration of the non-radiolabeled ligand was added to wells containing the membrane fraction and the radioligand.

5HT2C = molecular target: T2, 5HT2C (Homo sapiens, UniProt P28335); test: Competitive radioligand binding, 5HT2C; conditions: CHO membranes, 3H-mesulergin 1 nM; read-out: pIC50 5HT2C (converted)
T2 construct: expressed in transfected cells; host or cells: CHO (membrane fraction)
T2 sequence (P28335 33-458): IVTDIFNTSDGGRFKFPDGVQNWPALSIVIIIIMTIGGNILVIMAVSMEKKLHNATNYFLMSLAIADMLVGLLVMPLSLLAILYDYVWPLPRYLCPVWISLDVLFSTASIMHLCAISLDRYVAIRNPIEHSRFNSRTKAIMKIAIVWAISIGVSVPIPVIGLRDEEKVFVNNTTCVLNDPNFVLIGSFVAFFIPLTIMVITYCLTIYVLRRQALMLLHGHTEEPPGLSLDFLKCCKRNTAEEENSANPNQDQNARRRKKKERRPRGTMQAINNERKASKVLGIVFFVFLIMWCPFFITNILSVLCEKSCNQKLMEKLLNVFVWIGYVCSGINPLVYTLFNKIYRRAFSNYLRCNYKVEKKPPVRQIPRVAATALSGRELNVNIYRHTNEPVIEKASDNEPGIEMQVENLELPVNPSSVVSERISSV
Method: as §1, §2
(§3) From this, the pIC50 value (inhibitory concentration causing 50% displacement of specific binding) was determined, as well as an estimate of the slope of the plot (Hill coefficient).

5HT1A = molecular target: T3, 5HT1A (Homo sapiens, UniProt P08908); test: Competitive radioligand binding, 5HT1A; conditions: HEK293 membranes, 3H-8-OH-DPAT 0.5 nM; read-out: pIC50 5HT1A (converted)
T3 construct: expressed in transfected cells; host or cells: HEK293 (membrane fraction)
T3 sequence (P08908 1-422): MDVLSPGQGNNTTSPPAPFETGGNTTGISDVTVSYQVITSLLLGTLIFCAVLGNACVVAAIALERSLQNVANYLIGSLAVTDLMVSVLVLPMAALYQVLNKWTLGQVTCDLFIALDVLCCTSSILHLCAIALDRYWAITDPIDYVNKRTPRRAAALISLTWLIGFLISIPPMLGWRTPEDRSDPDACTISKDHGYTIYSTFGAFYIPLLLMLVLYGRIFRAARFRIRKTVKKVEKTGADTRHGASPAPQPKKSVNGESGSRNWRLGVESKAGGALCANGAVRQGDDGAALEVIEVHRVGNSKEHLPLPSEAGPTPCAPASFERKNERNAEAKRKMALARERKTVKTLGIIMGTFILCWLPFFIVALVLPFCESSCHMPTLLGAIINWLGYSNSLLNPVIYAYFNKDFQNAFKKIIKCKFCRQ
Method: as §1, §2
(§4) Using in house developed software, a best-fit curve was fitted by a minimum sum of squares method to the plot of % inhibition vs. concentration of the test compound. From this, the pIC50 value (inhibitory concentration causing 50% displacement of specific binding) was determined, as well as an estimate of the slope of the plot (Hill coefficient).

5HT2A = molecular target: T4, 5HT2A (Homo sapiens, UniProt P28223); test: Competitive radioligand binding, 5HT2A; conditions: NIH3T3 membranes, 3H-ketanserin 2 nM; read-out: pIC50 5HT2A (converted)
T4 construct: expressed in transfected cells; host or cells: NIH3T3 (membrane fraction)
T4 sequence (P28223 whole entry): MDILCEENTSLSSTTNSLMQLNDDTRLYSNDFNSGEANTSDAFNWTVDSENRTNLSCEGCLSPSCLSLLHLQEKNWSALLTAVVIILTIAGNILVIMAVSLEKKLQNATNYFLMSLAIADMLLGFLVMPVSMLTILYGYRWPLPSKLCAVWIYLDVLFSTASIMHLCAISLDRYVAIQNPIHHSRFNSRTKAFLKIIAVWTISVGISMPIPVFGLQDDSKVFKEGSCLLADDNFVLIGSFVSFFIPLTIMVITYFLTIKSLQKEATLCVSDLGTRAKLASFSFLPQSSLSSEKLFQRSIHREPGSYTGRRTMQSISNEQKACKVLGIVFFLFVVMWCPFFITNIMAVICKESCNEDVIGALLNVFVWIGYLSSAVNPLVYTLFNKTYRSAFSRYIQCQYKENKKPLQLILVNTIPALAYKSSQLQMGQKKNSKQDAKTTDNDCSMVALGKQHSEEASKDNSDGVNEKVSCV
Method: as §1, §2, §3

Alpha1A = molecular target: T5, Alpha1A (Homo sapiens, UniProt P35348); test: Competitive radioligand binding, Alpha1A; conditions: CHO membranes, 3H-prazosin 0.25 nM; read-out: pIC50 Alpha1A (converted)
T5 construct: expressed in transfected cells; host or cells: CHO (membrane fraction)
T5 sequence (P35348 1-466): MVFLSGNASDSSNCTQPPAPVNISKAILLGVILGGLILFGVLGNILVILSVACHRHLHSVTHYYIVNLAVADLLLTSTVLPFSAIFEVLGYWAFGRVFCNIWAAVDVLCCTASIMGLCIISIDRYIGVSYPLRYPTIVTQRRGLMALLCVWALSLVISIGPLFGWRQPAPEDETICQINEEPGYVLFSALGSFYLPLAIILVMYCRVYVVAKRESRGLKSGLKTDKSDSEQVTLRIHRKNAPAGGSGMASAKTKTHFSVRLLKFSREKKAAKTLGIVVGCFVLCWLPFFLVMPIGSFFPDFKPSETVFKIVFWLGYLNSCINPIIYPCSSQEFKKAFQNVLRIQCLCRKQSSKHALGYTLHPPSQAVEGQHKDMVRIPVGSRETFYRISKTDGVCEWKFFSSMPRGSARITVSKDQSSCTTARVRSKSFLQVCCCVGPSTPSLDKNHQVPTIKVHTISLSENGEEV
Method: as §1, §2, §4

Compound	IC50 (Alpha2A)	IC50 (5HT2C)	IC50 (5HT1A)	IC50 (5HT2A)	IC50 (Alpha1A)	pIC50 Alpha2A (Alpha2A)
COc1cc(N)c(Cl)cc1C(=O)N[C@@H]1CCN(CCCOc2ccc(F)cc2)C[C@H]1F (racemic) [(±)-7, trans-4-amino-5-chloro-N-{3-fluoro-1-[3-(4-fluorophenoxy)-propyl]-piperidin-4-yl}-2-methoxybenzamide]	3.63 µM	1.82 µM	1.82 µM	0.112 µM	> 10 µM	
COc1cc(N)c(Cl)cc1C(=O)N[C@H]1CCN(CCCOc2ccc(F)cc2)C[C@H]1F (racemic) [(±)-12, cis-4-amino-5-chloro-N-{3-fluoro-1-[3-(4-fluorophenoxy)-propyl]-piperidin-4-yl}-2-methoxybenzamide]	4.79 µM	4.37 µM	4.17 µM	0.363 µM	0.447 µM	
COc1cc(N)c(Cl)cc1C(=O)NC1CCN(CCCOc2ccc(F)cc2)CC1(F)F (racemic) [(±)-17, 4-amino-5-chloro-N-{3,3-difluoro-1-[3-(4-fluorophenoxy)-propyl]-piperidin-4-yl}-2-methoxybenzamide]	> 10 µM	4.68 µM	7.94 µM	1.95 µM	> 10 µM	
COc1cc(N)c(Cl)cc1C(=O)N[C@@H]1CCN(CCCOc2ccc(F)cc2)C[C@H]1F (single isomer, unassigned) [(+)-7, trans-4-amino-5-chloro-N-{3-fluoro-1-[3-(4-fluorophenoxy)-propyl]-piperidin-4-yl}-2-methoxybenzamide]	> 10 µM	1.23 µM	0.676 µM	0.0708 µM	0.525 µM	
COc1cc(N)c(Cl)cc1C(=O)N[C@H]1CCN(CCCOc2ccc(F)cc2)C[C@H]1F (single isomer, unassigned) [(+)-12, cis-4-amino-5-chloro-N-{3-fluoro-1-[3-(4-fluorophenoxy)-propyl]-piperidin-4-yl}-2-methoxybenzamide]		5.01 µM	0.741 µM	0.324 µM	0.55 µM	
COc1cc(N)c(Cl)cc1C(=O)N[C@@H]1CCN(CCCOc2ccc(F)cc2)C[C@H]1F (single isomer, unassigned) [(−)-7, trans-4-amino-5-chloro-N-{3-fluoro-1-[3-(4-fluorophenoxy)-propyl]-piperidin-4-yl}-2-methoxybenzamide]	7.76 µM	3.72 µM	1.1 µM	0.759 µM	0.398 µM	
COc1cc(N)c(Cl)cc1C(=O)N[C@H]1CCN(CCCOc2ccc(F)cc2)C[C@H]1F (single isomer, unassigned) [(−)-12, cis-4-amino-5-chloro-N-{3-fluoro-1-[3-(4-fluorophenoxy)-propyl]-piperidin-4-yl}-2-methoxybenzamide]	8.13 µM	6.61 µM	1.86 µM	0.49 µM	0.331 µM	
COc1cc(N)c(Cl)cc1C(=O)NC1CCN(CCCOc2ccc(F)cc2)CC1(F)F (single isomer, unassigned) [Compound (−)-17, 4-amino-5-chloro-N-{3,3-difluoro-1-[3-(4-fluorophenoxy)-propyl]-piperidin-4-yl}-2-methoxybenzamide]		6.61 µM	> 10 µM	1.74 µM	7.76 µM	<5
COc1cc(N)c(Cl)cc1C(=O)NC1CCN(CCCOc2ccc(F)cc2)CC1(F)F (single isomer, unassigned; (+)) [(+)-17, 4-amino-5-chloro-N-{3,3-difluoro-1-[3-(4-fluorophenoxy)-propyl]-piperidin-4-yl}-2-methoxybenzamide]	> 10 µM	> 10 µM	5.62 µM	2.57 µM	> 10 µM	
